# Reference: patent US8309068B2, “Isolated polypeptides and methods of improving muscle strength” (Myostin Therapeutics Pty Ltd., priority 2006, dated 2012)
# Tests used:
# primary myoblasts = test: Myoblast chemotaxis assay, effect of recombinant myostatin; assay type: cell-based; settings: recombinant myostatin at 2.5 μg/ml in control (CEE) medium; myoblasts from old (2 year old) mice
# Description: Primary myoblasts were cultured from the hind limb muscle of young (4 to 6 week old) or old (24 month old) mice, according to the published protocols (Allen et al., 1997; Partridge, 1997). Briefly, muscles were minced, and digested in 0.2% collagenase type 1A for 90 min. Cultures were enriched for myoblasts by pre-plating on uncoated plates for 3 hours. Myoblast cultures were maintained in growth media (GM) supplemented with 20% fetal calf serum (FCS), 10% HS and 1% CEE on 10% Matrigel coated plates, at 37° C./5% CO2. The extent of culture purity was assessed by flow cytometry analysis of MyoD expression after 48 hours in culture. Cells were harvested using trypsin, suspended at a concentration of 10^6 cells/200 μl and fixed overnight in 5 ml 70% ethanol at −20° C. Staining was performed for 30 min at room temperature using rabbit polyclonal anti-MyoD, 1:200 (Santa Cruz), followed by Alexa fluor 488 anti-rabbit conjugate, 1:500 (Molecular Probes). Analysis was carried out in duplicate with 10^4 cell events collected in each assay. Debris was excluded by gating on forward and side scatter profiles. Cells were analyzed by FACScan (Becton Dickinson). […]
# For the chemotaxis assay of myoblasts, a first assay was carried out on myoblasts from 2 year old mice as follows. […] Migrated cells were counted on four representative fields per membrane and the average number plotted. […]
# C2C12 myoblasts = test: C2C12 myoblast proliferation assay (methylene blue endpoint); assay type: cell-based, murine; settings: recombinant myostatin at 2.25 μg/ml in control medium
# Description: A polypeptide of the invention, or a fragment, variant or derivative thereof has the biological function of antagonising myostatin activity. To determine whether a polypeptide of the invention, or a fragment, variant or derivative thereof, is able to antagonise myostatin activity, such activity can be tested by growing myoblasts in the presence or absence (control) of a candidate polypeptide of the invention. […]
# The myoblast proliferation assay was carried out in uncoated 96-well microtitre plates. C2C12 cultures were seeded at 1000 cells/well. Following a 16-hour attachment period, test media containing either recombinant wild type myostatin or different myostatin antagonists were added and cells were incubated for a further 48 or 72 hour period. For competition assay, wild type myostatin was competed with different concentrations of myostatin antagonists prior to the addition into the media. After the incubation period, proliferation was assessed using methylene blue photometric endpoint assay as previously described (Thomas et al, 2000).
# p-FoxO1 = test: In vitro cancer cachexia trial: p-FoxO1 Western blot in C2C12 myotubes; assay type: cell-based, murine; settings: 6 μg/mL recombinant Myostatin; 24 hour treatment; C2C12 myotubes
# Description: C2C12 cells were differentiated for 72 hours in differentiation media (DMEM+2% HS). Following this period of differentiation the myotubes were tested with recombinant myostatin at 6 μg/mL or a combination of both myostatin and 300 recombinant protein at 30, 60, 90 or 120 μg/mL for further 24 hours to determine if 300 can rescue myostatin-mediated muscle wasting in vitro. Gene expression changes of intermediate signalling molecules critical in myostatin-mediated cachexia were analysed. Therefore, protein was isolated from cells and Western blot analysis was performed to measure protein expression levels for p-FoxO1, which we have shown to be a critical signalling intermediates in Myostatin-mediated cachexia (McFarlane et al 2006).
substance,measurement,setting,value
"recombinant myostatin: recombinant wild type myostatin (GDF-8), negative regulator of muscle growth, added to inhibit myoblasts [reference compound]",decrease in the number of migrated myoblasts,primary myoblasts,approximately 78%
same,inhibition of myoblast proliferation,C2C12 myoblasts; after 48 hours,25%
same,inhibition of myoblast proliferation,C2C12 myoblasts; after 72 hours,about 10%
same,p-FoxO1 expression (normalised to total FoxO1),p-FoxO1,down-regulation
